The record followed here is patent US10144715B2, “Piperazine derivatives as liver X receptor modulators” (priority 2014, dated 2018).

Read-outs that look alike come from different tables or passages of the source.

In experiment [1] the target is T1, LXR α LBD protein (Homo sapiens (Human), UniProt Q13133). Briefly: LXR α radioligand binding assay (SPA, competition with [3H]TO901317). Conditions: read-out: LXRα Binding Ki.
Experiment [2] deals with T2, LXR β LBD protein (Homo sapiens (Human), UniProt P55055). As to the kind of experiment: biochemical. The class given is binding. Conditions: read-out: LXRβ Binding Ki.
Target sequence in this assay (P55055 222-460 limits assumed): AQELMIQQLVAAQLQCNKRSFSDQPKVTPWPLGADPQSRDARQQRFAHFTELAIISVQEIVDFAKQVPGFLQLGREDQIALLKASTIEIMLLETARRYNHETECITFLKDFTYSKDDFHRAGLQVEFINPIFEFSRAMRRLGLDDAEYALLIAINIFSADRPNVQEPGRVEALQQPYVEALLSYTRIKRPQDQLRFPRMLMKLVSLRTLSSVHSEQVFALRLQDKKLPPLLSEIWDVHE
Experiment [3] deals with Gal4 DNA binding domain fused to the LBD of LXRα in HEK293 cells (Homo sapiens (Human), UniProt Q13133). As to the kind of experiment: LXR luciferase transcriptional reporter gene assay, agonist mode, LXRα. The class given is cell-based. (Reporter assays use an easily measured gene product as a stand-in for the process of interest.)
Experiment [4] deals with Gal4 DNA binding domain fused to the LBD of LXRβ in HEK293 cells (Homo sapiens (Human), UniProt P55055). As to the kind of experiment: cell-based.
Experiment [5] addresses T1, LXR α LBD protein. Briefly: Human LXRα coactivator recruitment FRET assay, agonist mode. The class given is biochemical. The procedure, abridged:
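Time-resolved FRET (delay 100 µs, window 200 µs) after 2 h rt incubation of compound with 10 nM (2×) GST-tagged LXRα or LXRβ LBD plus 200 nM fluorescein-SRC2-3 and 20 nM Tb-anti-GST (4×). Percent control vs concentration fit to four-parameter model; EC50 at inflection.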

The target in experiment [6] is T2, LXR β LBD protein. As to the kind of experiment: biochemical. The class given is biochemical. Conditions: for EC50: read-out: FRET LXRβ EC50.
Target sequence in this assay (P55055 222-460): as the sequence (P55055 222-460 limits assumed) above
Setting [7] is: Biological Test Example 3, agonist mode.
[8] abbreviates: agonist mode, read-out: Cell LXRα EC50.

T1 sequence (Q13133 209-447): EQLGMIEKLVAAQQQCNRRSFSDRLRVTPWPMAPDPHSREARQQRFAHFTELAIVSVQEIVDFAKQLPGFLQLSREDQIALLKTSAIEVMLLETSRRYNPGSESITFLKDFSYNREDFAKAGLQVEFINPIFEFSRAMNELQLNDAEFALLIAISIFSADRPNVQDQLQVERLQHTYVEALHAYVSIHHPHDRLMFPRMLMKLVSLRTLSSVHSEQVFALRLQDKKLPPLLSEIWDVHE
Gal4 DNA binding domain fused to the LBD of LXRα in HEK293 cells, sequence (Q13133 209-447): as above
Gal4 DNA binding domain fused to the LBD of LXRβ in HEK293 cells, sequence (P55055 222-460 limits assumed): as the sequence (P55055 222-460 limits assumed) above

In the case of `CS(=O)(=O)c1cc(N2CCN(C[C@H]3CC[C@H](C(F)(F)F)CC3)[C@@H](c3ccccc3)C2)ccc1C#N` (single isomer, unassigned) [50-4], the Ki (as a rule, the dissociation constant of the complex between target and ligand, obtained from inhibition or displacement) amounted to 2720 nM at LXR α LBD protein [1] and 516 nM at LXR β LBD protein [2] (Biological Test Example 1). For the same compound, the “Cell LXRα efficacy” value in experiment [3] was 3065 (19) %. Moreover, the EC50 (usually the midpoint of the concentration-response curve) in experiment [3] (read-out: Cell LXRα EC50) amounted to 3060 nM; in experiment [4] (Biological Test Example 2, agonist mode, read-out: Cell LXRβ EC50), 1280 nM; on LXR α LBD protein [5] (setting [7]) it was 9560 nM; on LXR β LBD protein [6] (setting [7]) it was 1630 nM. The “Cell LXRβ efficacy” value in experiment [4] (Biological Test Example 2, agonist mode) worked out at 23%. For the same compound, at LXR α LBD protein [5] (setting [7]), the “FRET LXRα efficacy” value came to 69%. The “FRET LXRβ efficacy” value on LXR β LBD protein [6] (setting [7]) was 82%.

With `CS(=O)(=O)c1cccc(N2CCN(c3nccc(C(F)(F)F)n3)[C@H](c3ccc(F)cc3)C2)c1` [8-1, (R)-2-(2-(4-fluorophenyl)-4-(3-(methylsulfonyl)phenyl)piperazin-1-yl)-4-(trifluoromethyl)pyrimidine], the inhibition constant (Ki) was 454 nM on LXR α LBD protein [1] and 36 nM at LXR β LBD protein [2]. Also, the “Cell LXRα efficacy” value in experiment [3] is on record as 2160 (16) %. Also, the concentration giving a half-maximal response (EC50) stood at 2160 nM in experiment [3] (setting [8]), 493 nM in experiment [4], 665 nM at LXR α LBD protein [5] (agonist mode) and 62 nM on LXR β LBD protein [6]. Besides, in experiment [4] (agonist mode), the “Cell LXRβ efficacy” value is 493 (31) %. The “FRET LXRα efficacy” value on LXR α LBD protein [5] (agonist mode) amounted to 41%. Also, the “FRET LXRβ efficacy” value at LXR β LBD protein [6] (agonist mode) is given as 62 (75) %.

Turning to `CC(C)(O)c1ccc(CN2CCN(c3cccc(S(C)(=O)=O)c3)C[C@@H]2c2ccccc2)cc1` [10-12, (S)-2-(4-((4-(3-(methylsulfonyl)phenyl)-2-phenylpiperazin-1-yl)methyl)phenyl)propan-2-ol], the Ki at LXR α LBD protein [1] was above 3330 nM; on LXR β LBD protein [2] it was above 2500 nM. In addition, the concentration giving a half-maximal response (EC50) is above 20000 nM in experiment [3] (read-out: Cell LXRα EC50), above 20000 nM in experiment [4], 1370 nM at LXR α LBD protein [5] (agonist mode) and 1140 nM at LXR β LBD protein [6]. Further, on LXR α LBD protein [5] (agonist mode), the “FRET LXRα efficacy” value worked out at 18%. Besides, on LXR β LBD protein [6] (agonist mode), the “FRET LXRβ efficacy” value is on record as 1141 (33) %.

With `CC(C)c1ccc(CN2CCN(c3cccc(S(C)(=O)=O)c3)C[C@H]2c2ccccc2)cc1` [46-7, (R)-1-(4-isopropylbenzyl)-4-(3-(methylsulfonyl)phenyl)-2-phenylpiperazine], the inhibition constant (Ki) is above 3330 nM on LXR α LBD protein [1] and above 2500 nM at LXR β LBD protein [2]. The EC50 in experiment [3] (read-out: Cell LXRα EC50) was above 20000 nM; in experiment [4], above 20000 nM; on LXR α LBD protein [5] (agonist mode), above 50000 nM; on LXR β LBD protein [6], above 50000 nM.

Take `CS(=O)(=O)c1cccc(N2CCN(Cc3ccc(OC(F)F)cc3)[C@@H](c3ccccc3)C2)c1` [46-11, (S)-1-(4-(difluoromethoxy)benzyl)-4-(3-(methylsulfonyl)phenyl)-2-phenylpiperazine]: the inhibition constant Ki on LXR α LBD protein [1] turned out to be 3290 nM; at LXR β LBD protein [2], 445 nM. In addition, in experiment [3], the “Cell LXRα efficacy” value was 3753 (7) %. Moreover, the EC50 in experiment [3] was 3750 nM; in experiment [4], above 20000 nM; on LXR α LBD protein [5] (agonist mode), 17300 nM; at LXR β LBD protein [6] it was 600 nM. Further, the “FRET LXRα efficacy” value on LXR α LBD protein [5] is on record as 17300 (33) %. Moreover, the “FRET LXRβ efficacy” value on LXR β LBD protein [6] is 600 (20) %.

Turning to `CC(C)c1ccc(CN2CCN(c3cccc(S(C)(=O)=O)c3)CC2c2ccccc2)cn1` (stereo not shown) [46-42, 1-((6-isopropylpyridin-3-yl)methyl)-4-(3-(methylsulfonyl)phenyl)-2-phenylpiperazine], the inhibitory constant (Ki) at LXR α LBD protein [1] is above 3330 nM; on LXR β LBD protein [2], above 2500 nM. Further, the EC50 in experiment [3] (setting [8]) was above 20000 nM; in experiment [4] it was 5900 nM; on LXR α LBD protein [5] (agonist mode), 984 nM; at LXR β LBD protein [6] it was 1050 nM. For the same compound, the “Cell LXRβ efficacy” value in experiment [4] (agonist mode) is listed as 5895 (9) %. Besides, on LXR α LBD protein [5] (agonist mode), the “FRET LXRα efficacy” value was determined as 53%. The “FRET LXRβ efficacy” value at LXR β LBD protein [6] (agonist mode) was 1048 (53) %.

In the case of `CS(=O)(=O)c1cc(F)cc(N2CCN(Cc3ccc(C(F)(F)F)nc3)C(c3ccccc3)C2)c1` (stereo not shown) [46-53, 4-(3-fluoro-5-(methylsulfonyl)phenyl)-2-phenyl-1-((6-(trifluoromethyl)pyridin-3-yl)methyl)piperazine], the figures for the Ki at LXR α LBD protein [1] and at LXR β LBD protein [2] were above 3330 nM and 1520 nM, respectively. Moreover, the “Cell LXRα efficacy” value in experiment [3] is given as 11138 (23) %. Moreover, the EC50 was determined as 11100 nM in experiment [3] (setting [8]), 3280 nM in experiment [4], 2590 nM at LXR α LBD protein [5] (agonist mode) and 924 nM at LXR β LBD protein [6]. Besides, in experiment [4] (agonist mode), the “Cell LXRβ efficacy” value is 3280 (28) %. Moreover, the “FRET LXRα efficacy” value at LXR α LBD protein [5] (agonist mode) turned out to be 46%.
